Where a SMILES comes first, the peptide text is derived from it. [ ]: non-standard residue; d: D form. The star is where a group is joined. X1 = Cc1ccc(Nc2ncc3c(n2)N(C)C(=O)N(c2cc(C(=O)*)ccc2C)C3)cn1; Aib = CC(C)(N)C(=O)O
Columns and labels:
c-Src [1] = biological target: T1, c-Src (Homo sapiens, UniProt P12931); assay: In vitro kinase assay (IC50); assay type: biochemical
T1 construct: purchased Reaction Biology Corp
Experimental: (§1) Full panel kinase profiling and kinase IC50 measurement were performed by using Reaction Biology Corp. (San Diego, USA).

Blk = biological target: T2, Blk (Homo sapiens, UniProt P51451); assay: In vitro kinase assay (IC50); assay type: biochemical
T2 construct: purchased Reaction Biology Corp
Experimental: as §1

Lck = biological target: T3, Lck (Homo sapiens, UniProt P06239); assay: In vitro kinase assay (IC50); assay type: biochemical
T3 construct: purchased Reaction Biology Corp
T3 sequence (P06239 whole entry): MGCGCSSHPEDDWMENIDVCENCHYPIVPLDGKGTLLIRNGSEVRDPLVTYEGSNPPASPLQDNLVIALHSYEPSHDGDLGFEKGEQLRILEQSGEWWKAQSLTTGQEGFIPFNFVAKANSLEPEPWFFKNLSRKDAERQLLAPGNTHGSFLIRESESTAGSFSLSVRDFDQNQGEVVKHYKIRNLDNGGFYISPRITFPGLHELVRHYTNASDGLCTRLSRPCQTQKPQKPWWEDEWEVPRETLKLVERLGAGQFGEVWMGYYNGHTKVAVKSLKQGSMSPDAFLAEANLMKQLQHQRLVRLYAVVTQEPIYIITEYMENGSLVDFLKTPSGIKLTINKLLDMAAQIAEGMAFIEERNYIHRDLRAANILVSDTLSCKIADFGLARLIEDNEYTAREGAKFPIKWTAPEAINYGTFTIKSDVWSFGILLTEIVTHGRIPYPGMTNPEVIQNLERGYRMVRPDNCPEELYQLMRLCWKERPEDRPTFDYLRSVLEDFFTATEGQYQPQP
Experimental: as §1

DSS-induced colitis mice = assay: DSS-induced colitis model; assay type: in vivo; details: 5 mg/kg, i.p., daily for 7 days, 4% DSS, day 7
Experimental: Male C57BL/6 mice (21 ± 2 g; 6 weeks) were obtained from Oriental Bio Inc. (Seongnam-si, Korea). All mice were bred under constant conditions (temperature: 22 ± 2 °C, humidity: 40–60%, light/dark cycle: 12 h). All animal experiments were conducted under the university guidelines of the ethical committee for Animal Care and Use of the Kyung Hee University (KHSASP-22–002).
Colitis in mice was induced by providing water containing 4% (w/v) DSS for 7 days. Mice were randomly divided into 5 groups (n = 6/group, Figure 8) as follows: control group treated with vehicle; DSS plus vehicle group exposed to 4% DSS and treated with vehicle; the other 3 groups consist of mice receiving 4% DSS was treated with 5-ASA (75 mg/kg/day, p.o.) as a positive control or 7a (1, 5 mg/kg/day, i.p.) daily for 7 days.
To calculate the severity of colitis, body weight, stool consistency, and occult/gross bleeding of all mice were assessed. DAI score was measured every day according to the following table (Table 5). The colon length was measured at end of the experiment.

c-Src [2] = biological target: T1, c-Src; assay: kinase selectivity profiling; assay type: biochemical; details: 10µM ATP, read-out: % inhibition (relative to DMSO)
Experimental: as §1

ZAP70 = biological target: T4, ZAP70 (Homo sapiens, UniProt P43403); assay: kinase selectivity profiling; assay type: biochemical; details: 10µM ATP, read-out: % inhibition (relative to DMSO)
T4 construct: purchased Reaction Biology Corp
Experimental: as §1

CK1d = biological target: T5, CK1d (Homo sapiens, UniProt P48730); assay: kinase selectivity profiling; assay type: biochemical; details: 10µM ATP, read-out: % inhibition (relative to DMSO)
T5 construct: purchased Reaction Biology Corp
Experimental: as §1

ERN1/IRE1 = biological target: T6, ERN1/IRE1 (Homo sapiens, UniProt O75460); assay: kinase selectivity profiling; assay type: biochemical; details: 10µM ATP, read-out: % inhibition (relative to DMSO)
T6 construct: purchased Reaction Biology Corp
Experimental: as §1

GRK4 = biological target: T7, GRK4 (Homo sapiens, UniProt P32298); assay: kinase selectivity profiling; assay type: biochemical; details: 10µM ATP, read-out: % inhibition (relative to DMSO)
T7 construct: purchased Reaction Biology Corp
T7 sequence (P32298 whole entry): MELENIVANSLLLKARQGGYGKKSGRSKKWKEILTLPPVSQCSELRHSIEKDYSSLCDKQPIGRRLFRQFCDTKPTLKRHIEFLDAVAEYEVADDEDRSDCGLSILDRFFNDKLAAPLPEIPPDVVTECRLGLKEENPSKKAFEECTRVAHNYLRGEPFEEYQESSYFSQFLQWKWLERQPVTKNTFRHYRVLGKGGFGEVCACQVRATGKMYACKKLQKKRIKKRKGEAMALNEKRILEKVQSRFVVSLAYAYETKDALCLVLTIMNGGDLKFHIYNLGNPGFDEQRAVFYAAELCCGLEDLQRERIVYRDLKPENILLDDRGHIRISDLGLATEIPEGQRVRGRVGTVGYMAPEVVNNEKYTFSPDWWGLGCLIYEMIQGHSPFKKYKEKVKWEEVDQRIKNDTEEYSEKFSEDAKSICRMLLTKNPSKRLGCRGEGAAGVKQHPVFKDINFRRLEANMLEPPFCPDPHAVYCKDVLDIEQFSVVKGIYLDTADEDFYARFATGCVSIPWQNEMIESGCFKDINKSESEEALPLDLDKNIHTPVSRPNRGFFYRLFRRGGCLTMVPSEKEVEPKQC
Experimental: as §1

DRAK1/STK17A = biological target: T8, DRAK1/STK17A (Homo sapiens, UniProt Q9UEE5); assay: kinase selectivity profiling; assay type: biochemical; details: 10µM ATP, read-out: % inhibition (relative to DMSO)
T8 construct: purchased Reaction Biology Corp
Experimental: as §1

MSSK1/STK23 = biological target: T9, MSSK1/STK23 (Homo sapiens, UniProt Q9UPE1); assay: kinase selectivity profiling; assay type: biochemical; details: 10µM ATP, read-out: % inhibition (relative to DMSO)
T9 construct: purchased Reaction Biology Corp
Experimental: as §1

CK1a1 = biological target: T10, CK1a1 (Homo sapiens, UniProt P48729); assay: kinase selectivity profiling; assay type: biochemical; details: 10µM ATP, read-out: % inhibition (relative to DMSO)
T10 construct: purchased Reaction Biology Corp
Experimental: as §1

ERK7/MAPK15 = biological target: T11, ERK7/MAPK15 (Homo sapiens, UniProt Q8TD08); assay: kinase selectivity profiling; assay type: biochemical; details: 10µM ATP, read-out: % inhibition (relative to DMSO)
T11 construct: purchased Reaction Biology Corp
Experimental: as §1

ERBB4/HER4 = biological target: T12, ERBB4/HER4 (Homo sapiens, UniProt Q15303); assay: kinase selectivity profiling; assay type: biochemical; details: 10µM ATP, read-out: % inhibition (relative to DMSO)
T12 construct: purchased Reaction Biology Corp
Experimental: as §1

CAMK2d = biological target: T13, CAMK2d (Homo sapiens, UniProt Q13557); assay: kinase selectivity profiling; assay type: biochemical; details: 10µM ATP, read-out: % inhibition (relative to DMSO)
T13 construct: purchased Reaction Biology Corp
Experimental: as §1

ROCK2 = biological target: T14, ROCK2 (Homo sapiens, UniProt O75116); assay: kinase selectivity profiling; assay type: biochemical; details: 10µM ATP, read-out: % inhibition (relative to DMSO)
T14 construct: purchased Reaction Biology Corp
T14 sequence (O75116 whole entry): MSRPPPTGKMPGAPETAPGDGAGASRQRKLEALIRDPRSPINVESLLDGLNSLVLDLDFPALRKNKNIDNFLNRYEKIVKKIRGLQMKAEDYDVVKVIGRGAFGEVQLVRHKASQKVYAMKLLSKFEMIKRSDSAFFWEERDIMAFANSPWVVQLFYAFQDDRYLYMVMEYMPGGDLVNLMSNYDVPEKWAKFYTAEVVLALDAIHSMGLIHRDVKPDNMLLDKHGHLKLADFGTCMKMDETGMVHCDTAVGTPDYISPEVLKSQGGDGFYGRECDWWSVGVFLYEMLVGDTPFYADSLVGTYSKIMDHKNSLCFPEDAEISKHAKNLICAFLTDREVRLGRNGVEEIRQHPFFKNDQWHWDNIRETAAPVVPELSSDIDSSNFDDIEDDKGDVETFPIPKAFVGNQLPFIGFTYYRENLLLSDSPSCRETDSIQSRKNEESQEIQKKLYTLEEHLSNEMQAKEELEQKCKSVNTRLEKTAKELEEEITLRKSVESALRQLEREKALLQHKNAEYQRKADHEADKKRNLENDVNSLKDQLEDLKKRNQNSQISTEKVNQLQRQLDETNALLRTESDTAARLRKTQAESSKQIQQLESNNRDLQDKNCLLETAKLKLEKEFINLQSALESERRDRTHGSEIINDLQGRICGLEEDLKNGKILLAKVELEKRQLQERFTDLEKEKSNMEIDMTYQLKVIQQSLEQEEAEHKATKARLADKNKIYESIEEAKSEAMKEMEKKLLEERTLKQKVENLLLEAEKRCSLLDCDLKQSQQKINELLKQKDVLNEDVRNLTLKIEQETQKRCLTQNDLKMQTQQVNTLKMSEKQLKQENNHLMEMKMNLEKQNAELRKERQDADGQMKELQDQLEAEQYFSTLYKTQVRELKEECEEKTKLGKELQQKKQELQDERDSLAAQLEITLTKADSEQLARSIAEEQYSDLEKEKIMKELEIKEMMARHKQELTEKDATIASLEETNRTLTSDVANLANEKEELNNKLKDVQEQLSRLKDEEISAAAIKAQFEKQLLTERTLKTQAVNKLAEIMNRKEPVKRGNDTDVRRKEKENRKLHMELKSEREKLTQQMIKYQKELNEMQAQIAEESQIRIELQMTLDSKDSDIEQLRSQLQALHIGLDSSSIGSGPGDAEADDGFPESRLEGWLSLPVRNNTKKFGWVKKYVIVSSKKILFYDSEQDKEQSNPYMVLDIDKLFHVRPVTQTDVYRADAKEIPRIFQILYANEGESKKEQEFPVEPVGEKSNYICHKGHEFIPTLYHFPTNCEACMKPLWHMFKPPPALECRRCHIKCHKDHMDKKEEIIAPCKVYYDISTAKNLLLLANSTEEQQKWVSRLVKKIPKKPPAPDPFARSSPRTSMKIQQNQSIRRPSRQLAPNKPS
Experimental: as §1

PHKg1 = biological target: T15, PHKg1 (Homo sapiens, UniProt Q16816); assay: kinase selectivity profiling; assay type: biochemical; details: 10µM ATP, read-out: % inhibition (relative to DMSO)
T15 construct: purchased Reaction Biology Corp
T15 sequence (Q16816 whole entry): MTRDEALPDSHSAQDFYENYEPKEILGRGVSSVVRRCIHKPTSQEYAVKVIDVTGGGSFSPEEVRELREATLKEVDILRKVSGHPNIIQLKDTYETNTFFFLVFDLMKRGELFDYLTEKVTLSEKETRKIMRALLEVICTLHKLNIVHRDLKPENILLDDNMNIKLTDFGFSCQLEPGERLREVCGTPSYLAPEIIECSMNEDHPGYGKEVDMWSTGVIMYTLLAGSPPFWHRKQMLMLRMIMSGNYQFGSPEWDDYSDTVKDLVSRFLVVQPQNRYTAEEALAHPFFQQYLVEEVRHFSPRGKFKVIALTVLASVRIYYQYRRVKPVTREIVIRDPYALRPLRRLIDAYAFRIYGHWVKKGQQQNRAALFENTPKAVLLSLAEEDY
Experimental: as §1

CDK19/cyclin C = biological target: T16, CDK19/cyclin C (Homo sapiens, UniProt Q9BWU1); assay: kinase selectivity profiling; assay type: biochemical; details: 10µM ATP, read-out: % inhibition (relative to DMSO)
T16 construct: purchased Reaction Biology Corp
Experimental: as §1

CLK1 = biological target: T17, CLK1 (Homo sapiens, UniProt P49759); assay: kinase selectivity profiling; assay type: biochemical; details: 10µM ATP, read-out: % inhibition (relative to DMSO)
T17 construct: purchased Reaction Biology Corp
Experimental: as §1

MEKK2 = biological target: T18, MEKK2 (Homo sapiens, UniProt Q9Y2U5); assay: kinase selectivity profiling; assay type: biochemical; details: 10µM ATP, read-out: % inhibition (relative to DMSO)
T18 construct: purchased Reaction Biology Corp
Experimental: as §1

CHK2 = biological target: T19, CHK2 (Homo sapiens, UniProt O96017); assay: kinase selectivity profiling; assay type: biochemical; details: 10µM ATP, read-out: % inhibition (relative to DMSO)
T19 construct: purchased Reaction Biology Corp
Experimental: as §1

ULK3 = biological target: T20, ULK3 (Homo sapiens, UniProt Q6PHR2); assay: kinase selectivity profiling; assay type: biochemical; details: 10µM ATP, read-out: % inhibition (relative to DMSO)
T20 construct: purchased Reaction Biology Corp
Experimental: as §1

ERK1 = biological target: T21, ERK1 (Homo sapiens, UniProt P27361); assay: kinase selectivity profiling; assay type: biochemical; details: 10µM ATP, read-out: % inhibition (relative to DMSO)
T21 construct: purchased Reaction Biology Corp
Experimental: as §1

FGFR1 = biological target: T22, FGFR1 (Homo sapiens, UniProt P11362); assay: kinase selectivity profiling; assay type: biochemical; details: 10µM ATP, read-out: % inhibition (relative to DMSO)
T22 construct: purchased Reaction Biology Corp
T22 sequence (P11362 22-822): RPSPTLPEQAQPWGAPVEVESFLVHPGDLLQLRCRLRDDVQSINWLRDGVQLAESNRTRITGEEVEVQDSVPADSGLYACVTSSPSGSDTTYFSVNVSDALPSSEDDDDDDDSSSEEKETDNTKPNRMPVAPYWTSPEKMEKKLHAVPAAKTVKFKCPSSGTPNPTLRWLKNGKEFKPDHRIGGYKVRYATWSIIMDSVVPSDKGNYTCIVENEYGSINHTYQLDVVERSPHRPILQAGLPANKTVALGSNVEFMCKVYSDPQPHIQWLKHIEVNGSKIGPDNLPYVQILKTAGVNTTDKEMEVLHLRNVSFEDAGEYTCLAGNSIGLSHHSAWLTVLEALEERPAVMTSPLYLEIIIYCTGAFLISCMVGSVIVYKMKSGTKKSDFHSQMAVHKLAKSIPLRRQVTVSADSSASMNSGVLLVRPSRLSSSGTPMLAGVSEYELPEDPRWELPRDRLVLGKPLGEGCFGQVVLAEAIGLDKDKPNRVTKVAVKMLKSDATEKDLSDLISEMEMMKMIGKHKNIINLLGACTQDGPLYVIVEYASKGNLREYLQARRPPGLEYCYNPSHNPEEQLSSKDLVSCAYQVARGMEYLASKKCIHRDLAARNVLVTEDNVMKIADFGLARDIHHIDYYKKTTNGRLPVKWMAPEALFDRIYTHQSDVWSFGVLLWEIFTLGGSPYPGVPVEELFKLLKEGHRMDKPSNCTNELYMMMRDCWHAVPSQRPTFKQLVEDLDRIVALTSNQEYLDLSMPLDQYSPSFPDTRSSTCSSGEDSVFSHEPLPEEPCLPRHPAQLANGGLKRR
Experimental: as §1

FMS = biological target: T23, FMS (Homo sapiens, UniProt P07333); assay: kinase selectivity profiling; assay type: biochemical; details: 10µM ATP, read-out: % inhibition (relative to DMSO)
T23 construct: purchased Reaction Biology Corp
Experimental: as §1

MLCK/MYLK = biological target: T24, MLCK/MYLK (Homo sapiens, UniProt Q15746); assay: kinase selectivity profiling; assay type: biochemical; details: 10µM ATP, read-out: % inhibition (relative to DMSO)
T24 construct: purchased Reaction Biology Corp
Experimental: as §1

KHS/MAP4K5 = biological target: T25, KHS/MAP4K5 (Homo sapiens, UniProt Q9Y4K4); assay: kinase selectivity profiling; assay type: biochemical; details: 10µM ATP, read-out: % inhibition (relative to DMSO)
T25 construct: purchased Reaction Biology Corp
T25 sequence (Q9Y4K4 whole entry): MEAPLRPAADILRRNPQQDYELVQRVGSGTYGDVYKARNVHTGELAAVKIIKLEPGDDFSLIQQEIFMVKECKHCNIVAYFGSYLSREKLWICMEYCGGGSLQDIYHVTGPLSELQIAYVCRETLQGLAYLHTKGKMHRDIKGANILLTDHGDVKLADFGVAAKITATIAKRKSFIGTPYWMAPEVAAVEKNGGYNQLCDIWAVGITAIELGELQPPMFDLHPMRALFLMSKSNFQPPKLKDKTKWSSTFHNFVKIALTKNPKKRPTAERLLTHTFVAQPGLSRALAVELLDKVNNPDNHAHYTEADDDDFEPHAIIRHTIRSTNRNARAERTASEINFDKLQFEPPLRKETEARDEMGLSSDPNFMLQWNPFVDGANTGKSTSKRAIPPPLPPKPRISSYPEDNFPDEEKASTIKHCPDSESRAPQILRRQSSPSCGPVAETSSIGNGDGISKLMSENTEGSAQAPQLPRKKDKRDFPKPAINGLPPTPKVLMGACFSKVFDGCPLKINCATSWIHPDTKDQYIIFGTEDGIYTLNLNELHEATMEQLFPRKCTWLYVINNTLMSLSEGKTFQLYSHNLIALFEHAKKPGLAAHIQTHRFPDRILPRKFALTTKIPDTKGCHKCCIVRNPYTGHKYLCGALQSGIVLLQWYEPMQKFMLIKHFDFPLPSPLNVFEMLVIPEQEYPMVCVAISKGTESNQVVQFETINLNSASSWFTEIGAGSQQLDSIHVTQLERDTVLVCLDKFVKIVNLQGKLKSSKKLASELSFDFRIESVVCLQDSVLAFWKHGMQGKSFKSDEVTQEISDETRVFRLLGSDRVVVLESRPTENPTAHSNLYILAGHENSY
Experimental: as §1

FGFR2 = biological target: T26, FGFR2 (Homo sapiens, UniProt P21802); assay: kinase selectivity profiling; assay type: biochemical; details: 10µM ATP, read-out: % inhibition (relative to DMSO)
T26 construct: purchased Reaction Biology Corp
Experimental: as §1

ASK1/MAP3K5 = biological target: T27, ASK1/MAP3K5 (Homo sapiens, UniProt Q99683); assay: kinase selectivity profiling; assay type: biochemical; details: 10µM ATP, read-out: % inhibition (relative to DMSO)
T27 construct: purchased Reaction Biology Corp
Experimental: as §1

CAMK1a = biological target: T28, CAMK1a (Homo sapiens, UniProt Q14012); assay: kinase selectivity profiling; assay type: biochemical; details: 10µM ATP, read-out: % inhibition (relative to DMSO)
T28 construct: purchased Reaction Biology Corp
Experimental: as §1

CDK16/cyclin Y (PCTAIRE) = biological target: T29, CDK16/cyclin Y (PCTAIRE) (Homo sapiens, UniProt Q00536); assay: kinase selectivity profiling; assay type: biochemical; details: 10µM ATP, read-out: % inhibition (relative to DMSO)
T29 construct: purchased Reaction Biology Corp
Experimental: as §1

P38d/MAPK13 = biological target: T30, P38d/MAPK13 (Homo sapiens, UniProt O15264); assay: kinase selectivity profiling; assay type: biochemical; details: 10µM ATP, read-out: % inhibition (relative to DMSO)
T30 construct: purchased Reaction Biology Corp
Experimental: as §1

HCK = biological target: T31, HCK (Homo sapiens, UniProt P08631); assay: kinase selectivity profiling; assay type: biochemical; details: 10µM ATP, read-out: % inhibition (relative to DMSO)
T31 construct: purchased Reaction Biology Corp
Experimental: as §1

STK38/NDR1 = biological target: T32, STK38/NDR1 (Homo sapiens, UniProt Q15208); assay: kinase selectivity profiling; assay type: biochemical; details: 10µM ATP, read-out: % inhibition (relative to DMSO)
T32 construct: purchased Reaction Biology Corp
Experimental: as §1

JAK2 = biological target: T33, JAK2 (Homo sapiens, UniProt O60674); assay: kinase selectivity profiling; assay type: biochemical; details: 10µM ATP, read-out: % inhibition (relative to DMSO)
T33 construct: purchased Reaction Biology Corp
Experimental: as §1

T1 sequence (P12931 whole entry): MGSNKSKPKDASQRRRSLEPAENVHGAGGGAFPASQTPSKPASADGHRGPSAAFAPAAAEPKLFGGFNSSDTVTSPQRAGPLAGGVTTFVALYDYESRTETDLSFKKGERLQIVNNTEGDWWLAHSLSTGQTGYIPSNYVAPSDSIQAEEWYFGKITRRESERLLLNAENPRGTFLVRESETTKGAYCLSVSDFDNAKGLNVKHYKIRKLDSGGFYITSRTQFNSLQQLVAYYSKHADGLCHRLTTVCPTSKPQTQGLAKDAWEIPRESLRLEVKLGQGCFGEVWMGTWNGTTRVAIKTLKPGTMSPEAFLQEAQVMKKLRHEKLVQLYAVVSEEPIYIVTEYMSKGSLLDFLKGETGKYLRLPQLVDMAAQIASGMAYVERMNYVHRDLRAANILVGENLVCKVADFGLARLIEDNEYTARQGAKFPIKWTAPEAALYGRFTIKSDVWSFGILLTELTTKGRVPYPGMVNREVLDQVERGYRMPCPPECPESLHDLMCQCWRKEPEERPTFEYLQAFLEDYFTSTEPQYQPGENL

Compound: Cc1ccc(Nc2ncc3c(n2)N(C)C(=O)N(c2cc(C(=O)N[C@H](C(=O)N4CCC[C@H]4C(=O)NC(C)(C)C(=O)N[C@@H](CC(C)C)C(=O)N(C)C)C(C)C)ccc2C)C3)cn1 [7a, (S)-N-(1-(((S)-1-(dimethylamino)-4-methyl-1-oxopentan-2-yl)amino)-2-methyl-1-oxopropan-2-yl)-1-((4-methyl-3-(1-methyl-7-((6-methylpyridin-3-yl)amino)-2-oxo-1,4-dihydropyrimido[4,5-d]pyrimidin-3(2H)-yl)benzoyl)-L-valyl)pyrrolidine-2-carboxamide] (X1-VP[Aib]L-NMe2)
- IC50 (c-Src [1]): 0.861 µM
- IC50 (Blk): 0.253 µM
- IC50 (Lck): 0.023 µM
- selectivity for Lck over c-Src (Lck): over 10 fold
- Lck selectivity over c-Src (c-Src IC50 / Lck IC50) (Lck; Table 2): 37
- disease activity index (DAI) symptom changes (DSS-induced colitis mice): improved the symptom changes at the end of experiments
- colon length (DSS-induced colitis mice; mean ± SE, n = 6): 5.47 ± 0.60 cm
- inhibition at 1 µM (c-Src [2]): 64%
- inhibition at 1 µM (ZAP70): 0%
- inhibition at 1 µM (CK1d): 11%
- inhibition at 1 µM (ERN1/IRE1): 5%
- inhibition at 1 µM (GRK4): 1%
- inhibition at 1 µM (DRAK1/STK17A): 0%
- inhibition at 1 µM (MSSK1/STK23): 10%
- inhibition at 1 µM (CK1a1): 0%
- inhibition at 1 µM (ERK7/MAPK15): 3%
- inhibition at 1 µM (ERBB4/HER4): 53%
- inhibition at 1 µM (CAMK2d): 0%
- inhibition at 1 µM (ROCK2): 10%
- inhibition at 1 µM (PHKg1): 7%
- inhibition at 1 µM (CDK19/cyclin C): 0%
- inhibition at 1 µM (CLK1): 5%
- inhibition at 1 µM (MEKK2): 0%
- inhibition at 1 µM (CHK2): 4%
- inhibition at 1 µM (ULK3): 0%
- inhibition at 1 µM (ERK1): 7%
- inhibition at 1 µM (FGFR1): 37%
- inhibition at 1 µM (FMS): 60%
- inhibition at 1 µM (MLCK/MYLK): 0%
- inhibition at 1 µM (KHS/MAP4K5): 23%
- inhibition at 1 µM (FGFR2): 12%
- inhibition at 1 µM (ASK1/MAP3K5): 0%
- inhibition at 1 µM (CAMK1a): 1%
- inhibition at 1 µM (CDK16/cyclin Y (PCTAIRE)): 6%
- inhibition at 1 µM (P38d/MAPK13): 0%
- inhibition at 1 µM (HCK): 38%
- inhibition at 1 µM (STK38/NDR1): 0%
- inhibition at 1 µM (JAK2): 11%

Source: PMC9067983, “Identification of highly selective type II kinase inhibitors with chiral peptidomimetic tails” (Journal of Enzyme Inhibition and Medicinal Chemistry, 2022)
